Results published in patent US20260109688A1, “NOVEL ANTIBIOTIC COMPOUND” (SINTEF TTO AS, priority 2022, published 2026).
Values after ≈ are worked out from the molar mass of the structure shown.

How the values were obtained:
E. faecium CCUG 37832 = test: In vitro MIC bioassay (broth microdilution, 384 well); format: cell-based, Enterococcus faecium; conditions: Mueller-Hinton broth, 2.7% DMSO
Procedure: (§1) Minimal inhibitory concentrations against a selection of Gram-positive indicator organisms (MICs) were determined according to Clinical and Laboratory Standards Institute protocols by microdilution tests using in a 384 well format. The indicator strains were incubated in TSB medium over night until OD600-0.4, then diluted to OD600=0.1 in TSB medium and further 45× in assay medium (Mueller-Hinton broth, Difco). Inoculated medium was distributed into assay plates. Inoculated wells were added a 2× dilution series of either isolated compound or vancomycin (reference) diluted in DMSO, giving a final DMSO concentration in each well of 2.7%, and final concentrations of active compound between 0 and 540 μg/ml (23 different concentrations). Four parallels were assayed for each compound and concentration. 0.5 mg of the compound produced by strain M1152ΔmatAB (P08-G05_C16) was purified on preparative HPLC, and the pure compound was tested in bioassay against a panel of strains. The indicator organisms were M. luteus ATCC 9341, Staphylococcus aureus ATCC 29213, Staphylococcus aureus ATCC 43300 (MRSA), Enterococcus faecium CCUG 37832, Enterococcus faecium CTC 492.

E. faecium CTC 492 = test: as above; format: cell-based, Enterococcus faecium; conditions: Mueller-Hinton broth, 2.7% DMSO
Procedure: as §1

`CN[C@H](CC(C)C)C(=O)N[C@H]1C(=O)N[C@@H](CC(N)=O)C(=O)N[C@H]2C(=O)N[C@H]3C(=O)N[C@H](C(=O)N[C@H](C(=O)O)c4cc(O)cc(O)c4-c4cc3ccc4O)[C@H](O)c3ccc(c(Cl)c3)Oc3cc2cc(c3O[C@@H]2O[C@H](CO)[C@@H](O)[C@H](O)[C@H]2O[C@H]2C[C@](C)(N)[C@H](O)[C@H](C)O2)Oc2ccc(cc2Cl)[C@H]1O` [Vancomycin, vancomycin] was tested, and the “MIC70: E. faecium CCUG 37832” value (E. faecium CCUG 37832) was 270 µg/mL (≈ 186 µM) and the “MIC70: E. faecium CTC 492” value (E. faecium CTC 492) was 1.06 µg/mL (≈ 0.731 µM).
